Source: patent publication US6265588A, “Isoxazole and crotonamide derivatives and their use as pharmaceuticals and diagnostics” (Aventis Pharma Deutschland GmbH, priority 1997, dated 2001)
Structures can show the parent of a compound that is named as a salt. Each block holds one compound with its values, some of them ahead of it.

What was measured:
RAW 264.7 cells = test: Comparative affinity chromatography of LPS-stimulated, leflunomide-treated RAW 264.7 cytosol extracts; format: cell-based; details: RAW 264.7, 10 ng LPS/ml plus 60 μM A 77 1726B, 24 hours; FRACTOGEL column derivatized according to Example 10
Text: The stimulation of the macrophage cell line RAW 264.7 with lipopolysaccharide was used as an in vitro model for inflammatory processes. Lipopolysaccharide ("LPS") is an essential structural constituent of the outer membrane of Gram-negative bacteria and is recognized as such by immune cells of almost all organisms. In particular, macrophages are activated by LPS stimulation to synthesize a number of cytokines such as TNF-α, IL-1 and IL-6. Potential changes in the protein pattern which accompany this stimulation should be prevented by the simultaneous administration of the immunoregulatory preparation leflunomide.
RAW 264.7 cells were incubated with 10 ng of LPS/ml of culture medium for 24 hours. In the case of LPS-stimulated, leflunomide-treated cells, incubation was simultaneously carried out with 60 μM A 77 1726B for 24 hours. The cells were processed and the cytosolic extracts investigated by affinity chromatography with the aid of the FRACTOGEL® column derivatized according to Example 10. The preparation fractions of these three batches were then applied to an analytical gradient gel and compared with one another.

A20.2.J = test: Proliferation test, cell line A20.2.J; format: cell-based; details: 72 h, tritium-thymidine incorporation, read-out: concentrations at which a 50% inhibition occurs, A20.2.J
Method: (§1) Clicks/RPMI 1640 medium (50:50) with L-glutamine and without NaHCO3 in powder form for 10 l (Seromed, Biochrom, Berlin, FRG), is dissolved in 9 l of double-distilled water and sterile-filtered into bottles each containing 900 ml.
(§2) For keeping tumor cells and hybridoma cells, use medium containing 5% FCS is prepared.
(§3) For keeping cell lines, 900 ml of use medium containing 10% FCS, 10 ml of NEA (non-essential amino acids) solution (Gibco), 10 ml of sodium pyruvate solution (100 mM, Gibco) and 5 ml of 10^-2 M mercaptoethanol are mixed.
(§4) The tumor cells or cell lines used in the test are taken from the stock solution in the logarithmic growth phase, washed twice with wash medium and suspended in the appropriate medium.
(§5) The proliferation test is carried out in round-bottom microtiter plates. Compounds of the formula I and interleukins are dissolved in 50 μl each/hollow of the appropriate medium and the cell count (5×10^5) is adjusted with 100 μl/hollow so that a final volume of 200 μl/hollow results. In all tests, the values are determined four times. Cells without preparations and without growth factor are defined as a negative control and cells without preparation with growth factor afford the values for the positive control. The value of the negative control is subtracted from all values determined and the difference of positive control minus negative control is set at 100%.
(§6) The microtiter plates are incubated at 37° C./5% CO2 for 72 h and the proliferation rate is determined correspondingly as in mitogen-induced lymphocyte proliferation. The cell lines were obtained from the strain collection, American Type Culture Collection ("ATCC").

EL 4 = test: Proliferation test, cell line EL 4; format: cell-based; details: Mus musculus, EL4; cell line EL 4, 72 h, tritium-thymidine incorporation; read-out: concentrations at which a 50% inhibition occurs, EL 4
Method: as §1, §2, §3, §4, §5, §6

K562 = test: Proliferation test, cell line K562; format: cell-based; details: Homo sapiens; cell line K562, 72 h, tritium-thymidine incorporation; read-out: concentrations at which a 50% inhibition occurs, K562
Method: as §1, §2, §3, §4
as §5, with “Cells without preparations and without growth factor are defined as a negative control and cells without preparation with growth factor afford the values for the positive control.” left out
The microtiter plates are incubated at 37° C./5% CO2 for 72 h and the proliferation rate is determined correspondingly as in mitogen-induced lymphocyte proliferation. […]

Bovine serum albumin = Bovine serum albumin (Bos taurus, UniProt P02769); test: BIAcore binding of serum albumin to chip coated with compound of Example 2; details: compound immobilised on CM5 chip according to Example 8
Method: (§7) The starting material is a CM5 chip from Pharmacia Biosensor having a carboxymethyldextran surface (BIApplication Handbook, Ed. 1994, Merck AB, Uppsala, Sweden). The coupling steps are all carried out at a flow rate of 5 μl/min. All steps are carried out at 25° C. using Hepes buffered saline ("HBS") pH 7.4 as the running buffer.
(§8) 1st step: 35 μl of a 1:1 mixture of 0.05 M NHS (N-hydroxysuccinimide) and 0.2 M EDC (N-ethyl-N'-(dimethylaminopropyl)carbodiimide) in order to activate the chip surface.
(§9) 2nd step: 35 μl of a 40 mM cystamine dihydrochloride solution in 0.1 M sodium borate buffer pH 8.5.
(§10) 3rd step: 35 μl of ethanolamine hydrochloride pH 8.5 to saturate unoccupied matrix structures.
(§11) 4th step: 35 μl of 0.1 M dithiothreitol in 0.1 M sodium borate buffer pH 8.5.
(§12) 5th step: 35 μl of a solution containing compound according to Example 2 (10 mg/ml) in 0.1 M sodium borate buffer pH 7.5.
(§13) The analysis was carried out essentially as described in Current Biology, Vol. 3, No. 12, pages 913-915 (1993).
(§14) System: BIAcore® 2000 with corresponding software, Pharmacia Biosensor AB, Uppsala, Sweden
(§15) Chip: CM5 sensor chip, Pharmacia Biosensor AB
(§16) Coating: according to Example 8
(§17) Running buffer: HBS buffer, BIA certified, Pharmacia Biosensor AB
(§18) Injection: 5 min association phase per 50 μl of the sample to be analyzed.
(§19) Rinsing time: 180 sec 3 min dissociation phase
(§20) Regeneration: 2×15 sec using 0.05% sodium dodecylsulfate
(§21) The term "Resonance Units" is a quantitative unit which is proportional to the amount of protein bound.

Chicken serum albumin = target: T1, Chicken serum albumin (Gallus gallus, UniProt P19121); test: as above; details: compound immobilised on CM5 chip according to Example 8
T1 sequence (P19121 24-615): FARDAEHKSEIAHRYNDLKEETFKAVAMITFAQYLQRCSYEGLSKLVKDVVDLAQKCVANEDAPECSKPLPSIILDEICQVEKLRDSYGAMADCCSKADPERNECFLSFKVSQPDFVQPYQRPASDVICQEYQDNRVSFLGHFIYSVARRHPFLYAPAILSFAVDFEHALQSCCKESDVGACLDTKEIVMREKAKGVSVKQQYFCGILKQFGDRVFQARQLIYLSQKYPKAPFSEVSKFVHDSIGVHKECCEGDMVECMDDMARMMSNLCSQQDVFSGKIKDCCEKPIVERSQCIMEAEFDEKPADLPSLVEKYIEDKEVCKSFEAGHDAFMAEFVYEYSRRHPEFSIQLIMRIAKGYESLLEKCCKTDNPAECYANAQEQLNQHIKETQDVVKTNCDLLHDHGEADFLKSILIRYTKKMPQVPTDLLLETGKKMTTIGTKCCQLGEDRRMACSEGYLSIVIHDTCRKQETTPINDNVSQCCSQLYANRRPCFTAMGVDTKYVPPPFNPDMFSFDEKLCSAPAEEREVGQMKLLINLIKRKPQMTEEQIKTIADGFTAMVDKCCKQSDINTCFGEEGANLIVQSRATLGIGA
Method: as §7, §8, §9, §10, §11, §12, §13, §14, §15, §16, §17, §18, §19, §20, §21

Donkey serum albumin = Donkey serum albumin (Equus asinus, UniProt Q5XLE4); test: as above; details: compound immobilised on CM5 chip according to Example 8
Method: as §7, §8, §9, §10, §11, §12, §13, §14, §15, §16, §17, §18, §19, §20, §21

Human serum albumin = Human serum albumin (Homo sapiens, UniProt P02768); test: as above; details: compound immobilised on CM5 chip according to Example 8
Method: as §7, §8, §9, §10, §11, §12, §13, §14, §15, §16, §17, §18, §19, §20, §21

Mouse serum albumin = Mouse serum albumin (Mus musculus, UniProt P07724); test: as above; details: compound immobilised on CM5 chip according to Example 8
Method: as §7, §8, §9, §10, §11, §12, §13, §14, §15, §16, §17, §18, §19, §20, §21

Rat serum albumin = Rat serum albumin (Rattus norvegicus, UniProt P02770); test: as above; details: compound immobilised on CM5 chip according to Example 8
Method: as §7, §8, §9, §10, §11, §12, §13, §14, §15, §16, §17, §18, §19, §20, §21

Sheep serum albumin = Sheep serum albumin (Ovis aries, UniProt P14639); test: as above; details: compound immobilised on CM5 chip according to Example 8
Method: as §7, §8, §9, §10, §11, §12, §13, §14, §15, §16, §17, §18, §19, §20, §21

Dihydroorotate DH = Dihydroorotate DH (Homo sapiens, UniProt Q02127); test: BIAcore binding of dehydrogenases to chip coated with compound of Example 2; details: compound immobilised on CM5 chip
Method: as §7, §8, §9, §10, §11, §12, §13, §14, §15, §16, §17, §18, §19, §20, §21
(§22) DH represents the enzyme designation dehydrogenase

[1] = target: Glyceraldehyde phosphate DH (Homo sapiens, UniProt P04406); test: as above; details: compound immobilised on CM5 chip
Method: as §7, §8, §9, §10, §11, §12, §13, §14, §15, §16, §17, §18, §19, §20, §21, §22

Pyruvate kinase DH = test: as above; details: compound immobilised on CM5 chip
Method: as §7, §8, §9, §10, §11, §12, §13, §14, §15, §16, §17, §18, §19, §20, §21, §22

dehydrogenases = test: BIAcore comparison of relative binding strengths of the dehydrogenases; details: protein concentration of 1 μM; compound immobilised on CM5 chip
Method: as §13, §14, §15, §16, §17, §18, §19, §20
The relative binding strengths of the dehydrogenases investigated were compared with one another at a defined protein concentration.

Dihydroorotate DH, sequence (Q02127 whole entry): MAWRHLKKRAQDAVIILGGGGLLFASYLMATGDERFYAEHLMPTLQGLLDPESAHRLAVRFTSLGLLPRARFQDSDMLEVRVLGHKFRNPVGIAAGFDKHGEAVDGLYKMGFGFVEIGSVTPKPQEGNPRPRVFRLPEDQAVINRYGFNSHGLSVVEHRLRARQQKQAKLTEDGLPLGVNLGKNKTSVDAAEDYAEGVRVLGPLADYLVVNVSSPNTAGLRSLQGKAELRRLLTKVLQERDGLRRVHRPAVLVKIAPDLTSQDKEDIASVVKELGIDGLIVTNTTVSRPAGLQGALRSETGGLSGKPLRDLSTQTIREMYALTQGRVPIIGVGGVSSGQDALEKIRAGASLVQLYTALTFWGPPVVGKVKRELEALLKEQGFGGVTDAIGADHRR
Glyceraldehyde phosphate DH, sequence (P04406 whole entry): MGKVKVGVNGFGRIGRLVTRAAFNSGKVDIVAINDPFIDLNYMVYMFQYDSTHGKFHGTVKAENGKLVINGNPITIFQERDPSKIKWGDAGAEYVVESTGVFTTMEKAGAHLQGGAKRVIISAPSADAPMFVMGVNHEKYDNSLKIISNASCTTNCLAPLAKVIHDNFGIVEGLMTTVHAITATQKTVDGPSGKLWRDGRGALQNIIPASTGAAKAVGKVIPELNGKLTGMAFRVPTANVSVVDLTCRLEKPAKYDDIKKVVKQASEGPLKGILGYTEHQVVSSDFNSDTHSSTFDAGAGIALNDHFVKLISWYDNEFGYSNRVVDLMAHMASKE
Human serum albumin, sequence (P02768 25-609): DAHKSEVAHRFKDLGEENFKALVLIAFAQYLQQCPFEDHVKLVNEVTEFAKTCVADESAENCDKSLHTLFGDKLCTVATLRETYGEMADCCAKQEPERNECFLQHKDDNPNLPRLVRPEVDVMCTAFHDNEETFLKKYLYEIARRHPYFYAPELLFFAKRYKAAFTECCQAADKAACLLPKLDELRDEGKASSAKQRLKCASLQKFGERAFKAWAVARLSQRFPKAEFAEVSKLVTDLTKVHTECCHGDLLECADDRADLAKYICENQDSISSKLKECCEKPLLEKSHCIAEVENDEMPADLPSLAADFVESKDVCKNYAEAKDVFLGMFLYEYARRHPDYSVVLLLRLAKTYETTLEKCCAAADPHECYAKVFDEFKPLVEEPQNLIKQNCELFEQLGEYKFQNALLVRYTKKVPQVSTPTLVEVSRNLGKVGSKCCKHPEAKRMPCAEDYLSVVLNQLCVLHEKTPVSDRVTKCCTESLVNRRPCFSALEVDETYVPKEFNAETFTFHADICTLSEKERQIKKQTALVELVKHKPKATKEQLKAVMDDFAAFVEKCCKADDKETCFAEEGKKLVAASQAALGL
Rat serum albumin, sequence (P02770 25-608): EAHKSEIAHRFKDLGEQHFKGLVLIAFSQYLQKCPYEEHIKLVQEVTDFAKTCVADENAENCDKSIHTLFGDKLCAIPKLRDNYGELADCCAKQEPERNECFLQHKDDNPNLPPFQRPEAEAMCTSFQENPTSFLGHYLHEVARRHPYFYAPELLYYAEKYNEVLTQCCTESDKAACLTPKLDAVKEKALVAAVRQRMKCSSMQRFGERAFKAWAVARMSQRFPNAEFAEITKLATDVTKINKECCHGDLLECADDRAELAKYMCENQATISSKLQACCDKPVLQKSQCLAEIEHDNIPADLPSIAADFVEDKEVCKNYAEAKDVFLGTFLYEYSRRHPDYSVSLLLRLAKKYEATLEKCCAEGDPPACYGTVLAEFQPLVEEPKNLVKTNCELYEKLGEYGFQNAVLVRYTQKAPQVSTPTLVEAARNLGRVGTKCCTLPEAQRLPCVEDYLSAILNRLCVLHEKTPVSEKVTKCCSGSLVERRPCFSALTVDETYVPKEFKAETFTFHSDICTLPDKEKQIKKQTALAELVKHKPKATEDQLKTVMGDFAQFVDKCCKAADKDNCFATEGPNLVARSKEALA
Bovine serum albumin, sequence (P02769 25-607): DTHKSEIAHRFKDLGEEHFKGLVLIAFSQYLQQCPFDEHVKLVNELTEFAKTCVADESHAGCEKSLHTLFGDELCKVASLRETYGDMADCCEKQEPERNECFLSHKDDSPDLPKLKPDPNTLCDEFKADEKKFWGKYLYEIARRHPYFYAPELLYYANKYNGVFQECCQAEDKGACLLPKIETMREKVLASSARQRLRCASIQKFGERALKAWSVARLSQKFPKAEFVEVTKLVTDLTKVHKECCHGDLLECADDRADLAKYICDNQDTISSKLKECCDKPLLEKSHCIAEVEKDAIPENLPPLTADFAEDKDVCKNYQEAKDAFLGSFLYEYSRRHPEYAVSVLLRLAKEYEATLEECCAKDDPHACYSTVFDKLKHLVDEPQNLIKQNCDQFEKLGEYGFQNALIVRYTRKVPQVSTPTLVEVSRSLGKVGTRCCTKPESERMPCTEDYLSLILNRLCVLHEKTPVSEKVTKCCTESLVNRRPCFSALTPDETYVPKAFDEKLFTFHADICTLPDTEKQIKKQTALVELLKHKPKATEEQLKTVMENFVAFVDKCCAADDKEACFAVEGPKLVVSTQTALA
Sheep serum albumin, sequence (P14639 25-607): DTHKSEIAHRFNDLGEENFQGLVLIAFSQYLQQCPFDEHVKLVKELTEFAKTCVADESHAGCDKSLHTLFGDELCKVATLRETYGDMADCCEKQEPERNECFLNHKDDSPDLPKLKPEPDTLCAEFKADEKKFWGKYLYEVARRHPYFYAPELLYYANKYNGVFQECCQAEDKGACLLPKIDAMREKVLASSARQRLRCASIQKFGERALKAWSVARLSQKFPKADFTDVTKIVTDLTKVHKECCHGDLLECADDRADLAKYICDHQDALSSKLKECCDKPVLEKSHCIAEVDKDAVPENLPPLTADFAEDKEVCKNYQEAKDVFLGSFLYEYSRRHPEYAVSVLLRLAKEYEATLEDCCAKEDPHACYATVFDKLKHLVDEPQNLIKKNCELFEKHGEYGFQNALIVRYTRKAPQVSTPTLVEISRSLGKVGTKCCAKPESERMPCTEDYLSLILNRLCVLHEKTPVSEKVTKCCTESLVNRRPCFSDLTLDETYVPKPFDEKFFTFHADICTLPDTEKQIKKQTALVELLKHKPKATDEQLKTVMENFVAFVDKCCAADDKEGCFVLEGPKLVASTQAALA
Mouse serum albumin, sequence (P07724 25-608): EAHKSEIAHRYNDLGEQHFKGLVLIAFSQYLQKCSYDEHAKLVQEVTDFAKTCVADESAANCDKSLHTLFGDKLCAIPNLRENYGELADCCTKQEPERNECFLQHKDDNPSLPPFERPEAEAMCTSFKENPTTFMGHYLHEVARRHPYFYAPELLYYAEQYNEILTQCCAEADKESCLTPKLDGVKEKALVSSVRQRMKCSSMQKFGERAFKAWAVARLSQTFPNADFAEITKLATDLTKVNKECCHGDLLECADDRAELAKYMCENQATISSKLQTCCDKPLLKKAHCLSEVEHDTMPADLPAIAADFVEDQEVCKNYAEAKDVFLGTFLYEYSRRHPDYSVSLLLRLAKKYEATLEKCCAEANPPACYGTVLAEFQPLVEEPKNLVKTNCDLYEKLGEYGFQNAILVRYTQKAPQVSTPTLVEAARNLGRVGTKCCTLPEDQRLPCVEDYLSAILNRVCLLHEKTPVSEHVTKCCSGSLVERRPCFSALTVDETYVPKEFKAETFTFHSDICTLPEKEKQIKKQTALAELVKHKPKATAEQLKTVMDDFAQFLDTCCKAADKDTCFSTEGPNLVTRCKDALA
Donkey serum albumin, sequence (Q5XLE4 25-607): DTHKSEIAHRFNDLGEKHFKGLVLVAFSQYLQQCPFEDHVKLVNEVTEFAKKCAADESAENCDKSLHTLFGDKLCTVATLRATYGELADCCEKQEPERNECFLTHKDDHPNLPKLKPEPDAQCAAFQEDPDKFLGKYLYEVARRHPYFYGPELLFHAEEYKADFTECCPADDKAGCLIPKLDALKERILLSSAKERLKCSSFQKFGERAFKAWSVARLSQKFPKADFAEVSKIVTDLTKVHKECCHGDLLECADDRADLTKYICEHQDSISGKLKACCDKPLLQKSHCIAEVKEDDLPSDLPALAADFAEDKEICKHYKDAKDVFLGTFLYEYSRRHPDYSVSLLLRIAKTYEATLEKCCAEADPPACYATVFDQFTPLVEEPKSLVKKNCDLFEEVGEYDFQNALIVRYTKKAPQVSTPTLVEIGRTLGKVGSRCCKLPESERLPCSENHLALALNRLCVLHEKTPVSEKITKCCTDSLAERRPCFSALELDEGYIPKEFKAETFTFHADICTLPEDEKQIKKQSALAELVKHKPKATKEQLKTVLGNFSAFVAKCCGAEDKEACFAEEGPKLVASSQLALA

Structure (SMILES): CC(O)=C(C#N)C(=O)Nc1ccc(C(F)(F)F)cc1 [A 77 1726B, sodium salt of N-(4-trifluoromethylphenyl)-2-cyano-3-hydroxycrotonamide]
intensity of band around 35 kDa (malate dehydrogenase) in the preparation fraction (RAW 264.7 cells): markedly increased

IC50 (K562): 50 µM
Structure (SMILES): Cc1oncc1C(=O)Nc1ccc(NC(=O)CBr)cc1 [Example 1, 5-Methylisoxazole4-carboxylic acid (4-(2-bromoacetylamino)phenyl)amide]
IC50 (A20.2.J): 0.8 µM
IC50 (EL 4): 0.8 µM

IC50 (K562): 20 µM
Resonance Units, binding of serum albumin (Bovine serum albumin): 50 Resonance Units
Resonance Units, binding of serum albumin (Chicken serum albumin): 8 Resonance Units
Resonance Units, binding of serum albumin (Donkey serum albumin): 480 Resonance Units
Resonance Units, binding of serum albumin (Human serum albumin): 294 Resonance Units
Resonance Units, binding of serum albumin (Mouse serum albumin): 151 Resonance Units
Resonance Units, binding of serum albumin (Rat serum albumin): 1061 Resonance Units
Resonance Units, binding of serum albumin (Sheep serum albumin): 331 Resonance Units
Resonance Units, binding of Dihydroorotate DH (Dihydroorotate DH; enzyme 50 nM): 203 Resonance Units
Resonance Units, binding of Dihydroorotate DH (Dihydroorotate DH; enzyme 100 nM): 425 Resonance Units
Resonance Units, binding of Dihydroorotate DH (Dihydroorotate DH; enzyme 250 nM): 1064 Resonance Units
Resonance Units, binding of Glyceraldehyde phosphate DH ([1]; enzyme 25 nM): 69 Resonance Units
Resonance Units, binding of Glyceraldehyde phosphate DH ([1]; enzyme 50 nM): 148 Resonance Units
Resonance Units, binding of Glyceraldehyde phosphate DH ([1]; enzyme 100 nM): 297 Resonance Units
Resonance Units, binding of Glyceraldehyde phosphate DH ([1]; enzyme 250 nM): 603 Resonance Units
Resonance Units, binding of Pyruvate kinase DH (Pyruvate kinase DH; enzyme 50 nM): 85 Resonance Units
Resonance Units, binding of Pyruvate kinase DH (Pyruvate kinase DH; enzyme 100 nM): 189 Resonance Units
Resonance Units, binding of Pyruvate kinase DH (Pyruvate kinase DH; enzyme 250 nM): 505 Resonance Units
Structure (SMILES): CC(O)=C(C#N)C(=O)Nc1ccc(NC(=O)CBr)cc1 [Example 2]
IC50 (A20.2.J): 15 µM
IC50 (EL 4): 6 µM
relative binding strengths of the dehydrogenases (dehydrogenases): the binding of the dihydroorotate DH was the strongest, followed by lactate DH, glyceraldehyde phosphate DH and pyruvate kinase

Structure (SMILES): CC(O)=C(C#N)C(=O)Nc1ccc(OCCCI)cc1 [Example 5, 2-Cyano-3-hydroxybut-2-enecarboxylic acid (4-(3-iodopropoxy)phenyl)amide]
IC50 (A20.2.J): 50 µM
IC50 (EL 4): 25 µM
